Source: paper PMC6915728 (Nature Communications, 2019)
Like-named read-outs stand apart in the source and are kept apart here.

Legend:
[1] = tested on: E. coli BW25113 overexpression strains (ASKA plasmids); test: Minimum inhibitory concentration (MIC), serial broth dilution, single-gene overexpression strains vs empty-vector control; assay type: cell-based, Escherichia coli; details: for Relative MIC: broth dilution, MS medium, 100 µM IPTG, 30 °C, 20-24 h, OD600, 3 replicates
Protocol: (§1) Minimum inhibitory concentrations (MIC) were determined with a standard serial broth dilution technique with a minor modification. Specifically, instead of a two-fold dilution series, smaller AMP concentration steps were used (typically 1.2-fold) for two reasons. […] Second, gene overexpressions caused typically only small changes in the MICs of AMPs and therefore higher resolution was required. The protocol was as follows. From a stock solution of an AMP, 12-steps serial dilution was prepared in fresh MS medium in 96-well microtiter plates. Each AMP was represented in 11 different concentrations (3 wells per AMP concentration per strain). Three wells contained only medium to check the growth in the absence of AMP. After overnight growth in MS medium supplemented with chloramphenicol, bacterial strains were diluted 20-fold into fresh MS medium and grown until the cell density reached OD600 ~1. Cells were induced by 100 µM of IPTG and incubated for 1 h at 30 °C with continuous shaking at 300 rpm. Following incubation, approximately half-million cells were inoculated into the wells of the 96-well microtiter plate with a 96‐pin replicator. We used three independent replicates for each strain and the corresponding control. Two rows in the 96-well plate contained only MS medium in order to obtain the background OD value of the medium. Plates were incubated at 30 °C with continuous shaking at 300 rpm. After 20–24 h of incubation, OD600 values were measured in a microplate reader (Biotek Synergy 2).

[2] = tested on: bacterial species in which the gene showed activity; details: cited from earlier work
E. coli BW25113 ΔmlaD = test: MIC, serial broth dilution, mlaD knockout strain vs wild type; assay type: cell-based, Escherichia coli; details: mlaD deletion strain relative to control (E. coli BW25113); 3 replicates each; from optical density values of serial dilution plates, AMP in µg ml-1
Protocol: What could be the mechanism behind the antagonistic action of this pathway on membrane- versus intracellular-targeting AMPs? Since MlaD is part of a protein complex, it may lead to a loss-of-function effect upon overexpression[41],[42]. To test this, we asked whether overexpression and deletion of mlaD cause similar changes in susceptibility to a representative set of membrane- and intracellular-targeting AMPs.
as §1
A mlaD knockout strain of E. coli BW25113 carrying a kanamycin resistance cassette in the position of the gene was selected from the KEIO collection. The resistance marker was removed using plasmid-borne (pFT-A) expression of FLP recombinase leading to excision of the kanamycin resistance cassette. Cassette excision was verified by a polymerase chain reaction using the primers mlaD_del_ver_Fw (5′- […]) and mlaD_del_ver_Rev (5′- […]).
Supplementary Figure 13. […] The bacterial susceptibility of the mutant to AMPs was tested by MIC determination. Growth is shown relative to growth in the absence of the corresponding AMP. The blue line represents the mlaD knockout strain and the orange line represents the control strain (wild-type E. coli BW25113). Error bars indicate the standard errors based on three biological replicates. Source data are provided in the Source Data file.

bacterial membrane = details: literature mining; ref superscript numbers in the cell, listed in Supplementary Data 7 sheet References; cited from earlier work
Source text: Supplement 41467_2019_13618_MOESM10_ESM.xlsx, sheet "AMP details" | column: Pore formation

[3] = tested on: AMP-evolved E. coli lines; details: ref Spohn et al 2019, cited from earlier work
Source text: Supplement 41467_2019_13618_MOESM13_ESM.xlsx, sheet "Figure 6 and S15" | column: A comprehensive dataset of antimicrobial susceptibility of AMP-adapted lines to antimicrobial peptides (AMPs).

[4] = overexpression strain narY, MIC of overexpression strain / MIC of empty-plasmid control

GIINTLQKYYRVRGGRAVLSLPKEEQIGKSTRGRKRRKK [HBD3, Human beta-defensin-3, human host-defense peptide; cluster C2]
Average relative change in MIC ([1]; mlaD overexpression strain relative to control (wild-type+empty vector), 3 replicates each, from optical density values of serial dilution plates, AMP in µg ml-1): 1.75 | Relative MIC ([1]; overexpression strain hyfA, MIC of overexpression strain / MIC of empty-plasmid control): 0.8 | Relative MIC ([1]; overexpression strain mlaD, MIC of the overexpression strain / MIC of the control strain (wild-type carrying the empty plasmid)): >1.55 | Relative MIC [1, 4]: 0.8 | Gene that modulates bacterial susceptibility to the AMP ([2]; Staphylococcus epidermidis, ref http://onlinelibrary.wiley.com/doi/10.1046/j.1462-5822.2004.00367.x/epdf): icaA(ica operon) | Average relative change in MIC (E. coli BW25113 ΔmlaD): 1.56

Peptide glycine-leucine amide [PGLA]
Relative MIC ([1]; overexpression strain gadW, MIC of overexpression strain / MIC of empty-plasmid control): 0.63 | Relative MIC ([1]; overexpression strain lptB, MIC of overexpression strain / MIC of empty-plasmid control): 1.66 | Relative MIC ([1]; overexpression strain mlaC, MIC of overexpression strain / MIC of empty-plasmid control): 1.3 | Relative MIC ([1]; overexpression strain mzrA, MIC of overexpression strain / MIC of empty-plasmid control): 1.2 | Relative MIC [1, 4]: 0.8 | Relative MIC ([1]; overexpression strain nikB, MIC of overexpression strain / MIC of empty-plasmid control): 1.25 | Relative MIC ([1]; overexpression strain ptsN, MIC of overexpression strain / MIC of empty-plasmid control): 0.71 | Relative MIC ([1]; overexpression strain uhpC, MIC of overexpression strain / MIC of empty-plasmid control): 1.25 | Gene that modulates bacterial susceptibility to the AMP ([2]; Salmonella typhimurium, Salmonella typhi, ref http://www.sciencedirect.com/science/article/pii/S009286740081750X): pagP | Pore formation (whether AMP makes pores in the bacterial membrane) (bacterial membrane): Yes10,11 | Relative change in MIC (MIC of the AMP-adpated line / MIC of the ancestral strain) ([3]; AMP-adapted line BAC5_3): 1.4 | Relative change in MIC (MIC of the AMP-adpated line / MIC of the ancestral strain) ([3]; AMP-adapted line BAC5_5): 1.1 | Relative change in MIC (MIC of the AMP-adpated line / MIC of the ancestral strain) ([3]; AMP-adapted line BAC5_7): 0.9 | Relative change in MIC (MIC of the AMP-adpated line / MIC of the ancestral strain) ([3]; AMP-adapted line BAC5_10): 1.3 | Relative change in MIC (MIC of the AMP-adpated line / MIC of the ancestral strain) ([3]; AMP-adapted line CAP18_2): 2.5 | Relative change in MIC (MIC of the AMP-adpated line / MIC of the ancestral strain) ([3]; AMP-adapted line CAP18_5): 5.2 | Relative change in MIC (MIC of the AMP-adpated line / MIC of the ancestral strain) ([3]; AMP-adapted line CAP18_6): 1.6 | Relative change in MIC (MIC of the AMP-adpated line / MIC of the ancestral strain) ([3]; AMP-adapted line CAP18_8): 3 | Relative change in MIC (MIC of the AMP-adpated line / MIC of the ancestral strain) ([3]; AMP-adapted line CAP18_10): 4.3 | Relative change in MIC (MIC of the AMP-adpated line / MIC of the ancestral strain) ([3]; AMP-adapted line HBD3_3): 2.3 | Relative change in MIC (MIC of the AMP-adpated line / MIC of the ancestral strain) ([3]; AMP-adapted line HBD3_6): 3.6 | Relative change in MIC (MIC of the AMP-adpated line / MIC of the ancestral strain) ([3]; AMP-adapted line HBD3_8): 3.3 | Relative change in MIC (MIC of the AMP-adpated line / MIC of the ancestral strain) ([3]; AMP-adapted line HBD3_10): 1.9 | Relative change in MIC (MIC of the AMP-adpated line / MIC of the ancestral strain) ([3]; AMP-adapted line LL37_1): 1.4 | Relative change in MIC (MIC of the AMP-adpated line / MIC of the ancestral strain) ([3]; AMP-adapted line LL37_3): 1.9 | Relative change in MIC (MIC of the AMP-adpated line / MIC of the ancestral strain) ([3]; AMP-adapted line LL37_6): 1.8 | Relative change in MIC (MIC of the AMP-adpated line / MIC of the ancestral strain) ([3]; AMP-adapted line LL37_7): 5.2 | Relative change in MIC (MIC of the AMP-adpated line / MIC of the ancestral strain) ([3]; AMP-adapted line LL37_10): 1.8 | Relative change in MIC (MIC of the AMP-adpated line / MIC of the ancestral strain) ([3]; AMP-adapted line PEX_1): 3.5 | Relative change in MIC (MIC of the AMP-adpated line / MIC of the ancestral strain) ([3]; AMP-adapted line PEX_4): 3.5 | Relative change in MIC (MIC of the AMP-adpated line / MIC of the ancestral strain) ([3]; AMP-adapted line PEX_5): 1.9 | Relative change in MIC (MIC of the AMP-adpated line / MIC of the ancestral strain) ([3]; AMP-adapted line PEX_6): 2.1 | Relative change in MIC (MIC of the AMP-adpated line / MIC of the ancestral strain) ([3]; AMP-adapted line PEX_7): 2.9 | Relative change in MIC (MIC of the AMP-adpated line / MIC of the ancestral strain) ([3]; AMP-adapted line PR39_1): 1.6 | Relative change in MIC (MIC of the AMP-adpated line / MIC of the ancestral strain) ([3]; AMP-adapted line PR39_2): 1.5 | Relative change in MIC (MIC of the AMP-adpated line / MIC of the ancestral strain) ([3]; AMP-adapted line PR39_5): 0.8 | Relative change in MIC (MIC of the AMP-adpated line / MIC of the ancestral strain) ([3]; AMP-adapted line PR39_7): 1.5 | Relative change in MIC (MIC of the AMP-adpated line / MIC of the ancestral strain) ([3]; AMP-adapted line PR39_10): 0.4 | Relative change in MIC (MIC of the AMP-adpated line / MIC of the ancestral strain) ([3]; AMP-adapted line PROA_2): 1.6 | Relative change in MIC (MIC of the AMP-adpated line / MIC of the ancestral strain) ([3]; AMP-adapted line PROA_3): 1.1 | Relative change in MIC (MIC of the AMP-adpated line / MIC of the ancestral strain) ([3]; AMP-adapted line PROA_7): 0.6 | Relative change in MIC (MIC of the AMP-adpated line / MIC of the ancestral strain) ([3]; AMP-adapted line PROA_8): 1.2 | Relative change in MIC (MIC of the AMP-adpated line / MIC of the ancestral strain) ([3]; AMP-adapted line PROA_9): 0.9 | Relative change in MIC (MIC of the AMP-adpated line / MIC of the ancestral strain) ([3]; AMP-adapted line PXB_2): 1.8 | Relative change in MIC (MIC of the AMP-adpated line / MIC of the ancestral strain) ([3]; AMP-adapted line PXB_5): 1.5 | Relative change in MIC (MIC of the AMP-adpated line / MIC of the ancestral strain) ([3]; AMP-adapted line PXB_6): 8 | Relative change in MIC (MIC of the AMP-adpated line / MIC of the ancestral strain) ([3]; AMP-adapted line PXB_8): 4.5 | Relative change in MIC (MIC of the AMP-adpated line / MIC of the ancestral strain) ([3]; AMP-adapted line PXB_10): 5.5
